Reference: patent US12496302B2, “Compositions and methods for the treatment and diagnosis of cancer” (The General Hospital Corporation, priority 2020, dated 2025)

How the values were obtained:
[1] = system: cancer cell lines (HST578, MBAMD231, HCC1937, HCC1954); assay: Cell survival (colony) assay with TRDMT1i alone, Example 19; assay type: cell-based; details: HCC1954 (HRD, high SYCP2)
Experimental: FIGS. 14A-14C show TRDMT1i alone reduce cancer cell survival in a dose-dependent manner. (FIG. 14A) Survival rate of HR proficient (HR+) HST578 cancer cells with and without siBRCA1 and/or TRDMT1i YW-1842 at indicated dose. The survival rate of these cells was analyzed (n=3, Mean±SD). (FIG. 14B) Survival rate of MBAMD231 (HR+) and HCC1937 (HRD) cells. The survival rate of these cells was analyzed (n=3, Mean±SD). (FIG. 14C) Cell survival rate in different cancer cell lines via colony-forming assay with the treatment of Imatinib at indicated dose (n=3, mean+/−S.D.). Cell lines are listed in order with the expression level from SYCP2high to SYCP2low.
HCC1500, HCC1954, BT549, MCF7 and MDAMB468 were cultured in Roswell Park Memorial Institute (RPMI) 1640 Medium (Sigma, R8758) with 10% (vol/vol) fetal bovine serum (FBS, XY Cell Culture, FBS-500) at 37° C., 5% CO2. siBRCA1 (L-003461-00, Dharmacon) was transfected with Lipofectamine RNAiMax (Invitrogen; Carlsbad, CA, USA). PARPi Olaparib (AZD2281/Ku-0059436, Sellekchem, S1060) and Pol theta inhibitor Novobiocin (Sigma) were used.
Cells were seeded in each 6-cm dish and cultured as described above. They were treated with drugs with indicated dose in medium after seeding. After 7-10 days, colonies were fixed and stained with 0.3% crystal violet in methanol, and the number of colonies was counted manually.

[2] = system: MD-MBA-231 xenograft tumors; assay: MDA-MB-231 xenograft with PARPi; assay type: in vivo, BALB/c nude mice; details: injection every 2 days after day 7, 23 days
Experimental: FIGS. 9A-9G show SYCP2 is required for efficient homologous recombination. (FIG. 9A) Cell survival rate of HeLa and MDAMB231 via colony forming assay with the treatment of 2 μM, 4 μm, 6 μM, 8 μM, 16 μM of Olaparib (n=3, mean+/−S.D.). Western blot of SYCP2 overexpression in HeLa and MDA-MB-231 is shown in the left. (FIG. 9B) Cell survival rate of HeLa via colony forming assay with the treatment of 1 μM, 2 μm, 3 μM of Olaparib (n=3, mean+/−S.D.). Western blot of SYCP2 knockdown in Hela is shown in the left. (FIG. 9C) Scheme of Xenograft design using intraperitoneal injection of MBA-MD-231 into successful developed mouse model with virus-associated SYCP2 knockdown and control groups is shown in the left. PARPi was injected every 2 days after day 7. The graph is shown the recorded tumor size of each tested group with PARPi treatment or saline at each treatment day. (FIG. 9D). Numbers of SYCP2 IR induced foci (IRIF) colocalizing with γH2AX in MDAMB231 and HeLa cells. Cells were fixed and counted for foci numbers after 2 Gy IR followed up indicated recovery time (t=0 hr, 12 hr, 24 hr, and 48 hr) (n=30, mean+/−S.D). (FIG. 9E). […] Fold increase of mean intensity at sites of irradiation compared to mean intensity of nucleus expression is quantified (n=5, mean+/−SD). […] Numbers of RAD51 IRIF in siCtrl and siSYCP2 treated MDAMB231 and U2OS cells after 2 Gy IR and 1 hour recovery were counted (n=20, +/−SD). […]

[3] = system: SKOV3 xenograft tumors; assay: SKOV3 subcutaneous xenograft with Cisplatin; assay type: in vivo, BALB/c nude mice; details: Lv-shTRDMT1 infected SKOV3 xenografts, Cisplatin 5 mg/kg intratumoral twice per week for 3 weeks
Experimental: FIGS. 5A-5E show reduced TRDMT1 expression renders Cisplatin sensitization in vivo. (FIG. 5A) Lv-shTRDMT1 or Lv-NC transfected SKOV3 cells were subcutaneously injected into BALB/c nude mice, a week after injection, Cisplatin (5 mg/kg) or saline was injected into the center of the xenograft tumors twice per week for 3 consecutive weeks. (FIG. 5B) Representative images of tumors in xenografts transfected with LV-shTRDMT1/LV-NC with saline or Cisplatin treatment. (FIG. 5C) Tumor size of SKOV3 subcutaneous xenograft tumors (n=6, Mean±SD). (FIG. 5D) WB for TRDMT1 in tumor tissues collected from mice in each group (Tissues from six tumors in the same group were mixed into one sample). (FIG. 5E) IHC of TRDMT1 and KI-67 expression in ovarian cancer tissues of patients who were platinum-sensitive (PFS>6) and −resistant (PFS<6) Staining was assessed and scored on a scale of 0 (<5% staining) to 4 (>75% staining) in G. Quantification of IHC staining (n=38, PFS>6, n=24; PFS<6, n=14) was shown.
SKOV3 cells (1.0×10^6) were transfected with LV-TRDMT1-RNAi (gcAGAAGA AATTCACAGGAAA, SEQ ID NO: 15) or LV-NC-RNAi and injected […] into female nude mice which were then randomly divided into 4 groups (6 animals per condition). […] PFS was calculated from the time of surgery to the time of progression or recurrence. […]

SMILES: O=C(c1cc(Cc2n[nH]c(=O)c3ccccc23)ccc1F)N1CCN(C(=O)C2CC2)CC1 [olaparib]
- sensitivity of HCC1954 to PARPi [1]: relatively resistant
- tumor growth reduction by PARPi, SYCP2 knockdown versus control tumors ([2]; LV-siSYCP2 tumors): more than control tumors
- tumor growth, control tumors ([2]; siControl tumors): reduced the growth of control tumors

SMILES: N.N.[Cl][Pt][Cl] [cisplatin]
- xenograft tumor size [3]: grew statistically smaller
